# Test results: patent US20230233584A1, “EXTENDED RELEASE 5-HT RECEPTOR AGONISTS FOR NEUROLOGICAL CONDITIONS” (Diamond Therapeutics Inc., priority 2020, published 2023)
# System: Long Evans rats
# Assay: Progressive ratio (PR) test, Study B
# Format: in vivo
# Details: 0.025 mg/kg, rats
# Protocol: General: Experiments were conducted to test psilocybin doses in the range of 0.01-0.2 mg/kg psilocybin administered S.C. across progressive ratio (PR) and 5-choice serial reaction time task (5CSRTT) to examine the effect of psilocybin on endophenotypes of motivation and attention. In each study, a population of out-bred Long Evans rats was first tested as a group for response to the PR and 5CSRTT. Each group was then divided into subgroups by tertiles according to performance, and then exposed to various dose levels immediately prior to re-testing at various psilocybin dose levels.
# The PR test is used to answer how willing the test subject is to work for food (i.e. test of motivation). A single 45 mg food pellet (i.e. reinforcer) is made available to the test animal based on lever press response. To obtain each successive pellet, the animal must make increasingly more lever presses. Typically, a progression of 2, 4, 6, 9, 12, 15, 20, 25, 32, 40, 50, 62, 77, 95, 118, etc. is used, derived from the equation:
# ratio=[5×e^(0.2×reinforcer #)−5]
# At some point, the animal gives up as the motor demands to obtain a single pellet are not deemed worthwhile (i.e. animal reaches “break point” defined as animal's failure to earn a food pellet in 20 minutes).
# Study B: Based on Study 1 outcome, a follow-up PR study was conducted utilizing a larger cohort size (72 rats total), and incorporating a lower dose of psilocybin (0.025 mg/kg SC) (FIG. 2C and FIG. 2D). […] Separation of rats based on the lowest average break point recorded over the 7 days prior to testing identified a “low responder” subgroup of N=24 rats. […] There was no treatment effect on session duration (F3,69=2.4; P=0.07, NS), although there was trend for this to be increased at the 0.1 mg/kg dose (Veh: 15.1+2.0 min; Psilo 0.1 mg/kg: 18.7+2.5 min).
compound,measurement,value
"CCN(CC)C(=O)[C@@H]1C=C2c3cccc4[nH]cc(c34)C[C@H]2N(C)C1 [LSD, D-lysergic acid diethylamide]",effect in PR test at lowest dose tested,no significant effect
